Measurements: patent US20080319191A1, “Crystalline form IV of linezolid” (Teva Pharmaceutical Industries Ltd., priority 2005, published 2008)

Legend:
Type in all cases: physicochemical
[1] = Stability of linezolid Form IV stored 10 days at 0-100% relative humidity at room temperature
Procedure: The stability of linezolid Form IV was tested by storing it for 10 days at a relative humidity of between 0 and 100% at room temperature.

[2] = Long term stability of linezolid Form IV at room temperature and accelerated conditions (40° C. and 55° C.)
Procedure: The long term stability of linezolid Form IV was tested by storing it at room temperature and under accelerated conditions at 40° C. and 55° C.

[3] = Chemical stability of Form IV obtained by heating Form II at 170° C.; details: Form IV obtained at 170° C. (one hour)
Procedure: Crystalline linezolid Form IV may be prepared by heating crystalline linezolid Form II to a temperature higher than 85° C. Crystalline linezolid Form IV is obtained by keeping crystalline linezolid Form II at a temperature of between 85-175° C. As an example, crystalline linezolid Form II was kept at a temperature of 170° C. during one hour. The polymorphic form of crystalline linezolid Form II was changed to crystalline linezolid Form IV.

Solvent content ([1]; As is (before storage)): 0.1% | Hygroscopicity ([1]; between 0-100% RH): non-hygroscopic | Stability ([1]; between 0-100% RH): stable | Solvent content ([1]; relative humidity 0%, 10 days, room temperature): 0.1% | Solvent content ([1]; relative humidity 20%, 10 days, room temperature): 0.1% | Solvent content ([1]; relative humidity 40%, 10 days, room temperature): 0.1% | Solvent content ([1]; relative humidity 60%, 10 days, room temperature): 0.1% | Solvent content ([1]; relative humidity 80%, 10 days, room temperature): 0.1% | Solvent content ([1]; relative humidity 100%, 10 days, room temperature): 0.1% | Time stable against transformation into Form II upon storage ([1]; relative humidity of about 0% to about 100%, room temperature): at least 10 days | Crystal form after storage (Results) ([2]; 25° C., 1 M): Form IV | Crystal form after storage (Results) ([2]; 25° C., 2 M): Form IV | Crystal form after storage (Results) ([2]; 25° C., 3 M): Form IV | Time stable on storage ([2]; 25° C., 40° C., and 55° C.): ≥ 3 months | Crystal form after storage (Results) ([2]; 25° C., As is): Form IV | Crystal form after storage (Results) ([2]; 40° C., 1 M): Form IV | Crystal form after storage (Results) ([2]; 40° C., 2 M): Form IV | Crystal form after storage (Results) ([2]; 40° C., 3 M): Form IV | Crystal form after storage (Results) ([2]; 55° C., 1 M): Form IV | Crystal form after storage (Results) ([2]; 55° C., 2 M): Form IV | Crystal form after storage (Results) ([2]; 55° C., 3 M): Form IV | Chemical stability [3]: chemically stable
SMILES: CC(=O)NC[C@H]1CN(c2ccc(N3CCOCC3)c(F)c2)C(=O)O1 [linezolid Form IV]
